Values joined by “and” are separate entries in the source; they are usually repeats but may differ in a detail not shown here. Equal entries are not always repeated.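 1) Cells in 96-well plates. 2) Compound, 48 h, 5 concentrations. 3) Linear interpolation between surrounding doses. 4) Unreached endpoint = highest concentration. Abbreviation: GI50, concentration required for 50% inhibition of growth.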 Active and inactive are the calls of the source. Cut-off read from the data, not from the text of the source: active = GI50 up to about 1.1 µM and inactive = higher.
What was measured:
Test in all cases: NCI-60 cell line screen, 48 h
786-0 = test system: 786-0
A498 = test system: A498
A549 = test system: A549
ACHN = test system: ACHN
CAKI-1 = test system: CAKI-1
CCRF-CEM = test system: CCRF-CEM
COLO 205 = test system: COLO 205
DLD-1 = test system: DLD-1
DMS-114 = test system: DMS-114
DMS-273 = test system: DMS-273
EKVX = test system: EKVX
HCC 2998 = test system: HCC 2998
HCT-116 = test system: HCT-116
HCT-15 = test system: HCT-15
HL-60 = test system: HL-60
HOP-62 = test system: HOP-62
HOP-92 = test system: HOP-92
HT-29 = test system: HT-29
IGROV-1 = test system: IGROV-1
K562 = test system: K562
KM-20L2 = test system: KM-20L2
KM12 = test system: KM12
LOX IMVI = test system: LOX IMVI
LXFL 529 = test system: LXFL 529
M14 = test system: M14
M19-MEL = test system: M19-MEL
MOLT-4 = test system: MOLT-4
Malme-3M = test system: Malme-3M
NCI-H226 = test system: NCI-H226
NCI-H23 = test system: NCI-H23
NCI-H460 = test system: NCI-H460
NCI-H522 = test system: NCI-H522
OVCAR-3 = test system: OVCAR-3
OVCAR-4 = test system: OVCAR-4
OVCAR-5 = test system: OVCAR-5
OVCAR-8 = test system: OVCAR-8
RPMI-8226 = test system: RPMI-8226
RXF 393 = test system: RXF 393
RXF 631 = test system: RXF 631
SF-268 = test system: SF-268
SF-295 = test system: SF-295
SF-539 = test system: SF-539
SK-MEL-28 = test system: SK-MEL-28
SK-MEL-2 = test system: SK-MEL-2
SK-MEL-5 = test system: SK-MEL-5
SK-OV-3 = test system: SK-OV-3
SN12C = test system: SN12C
SNB-19 = test system: SNB-19
SNB-75 = test system: SNB-75
SNB-78 = test system: SNB-78
SR = test system: SR
SW-620 = test system: SW-620
TK-10 = test system: TK-10
U-251 = test system: U-251
UACC-257 = test system: UACC-257
UACC-62 = test system: UACC-62
UO-31 = test system: UO-31
XF498 = test system: XF498
HOP-18 = test system: HOP-18

Compound: C#CCNC(=O)NC(CCCNC(=O)OCc1ccccc1)C(=O)OCc1ccccc1 (stereo not drawn)
- GI50 (786-0): > 100 µM (inactive)
- GI50 (A498): > 100 µM (inactive)
- GI50 (A549): > 100 µM (inactive)
- GI50 (ACHN): > 100 µM (inactive)
- GI50 (CAKI-1): 33.8 µM (inactive)
- GI50 (CCRF-CEM): > 100 µM (inactive)
- GI50 (COLO 205): 35.7 µM (inactive)
- GI50 (DLD-1): > 100 µM (inactive)
- GI50 (DMS-114): > 100 µM (inactive)
- GI50 (DMS-273): > 100 µM (inactive)
- GI50 (EKVX): > 100 µM (inactive)
- GI50 (HCC 2998): > 100 µM (inactive)
- GI50 (HCT-116): > 100 µM (inactive)
- GI50 (HCT-15): > 100 µM
- GI50 (HL-60): 25.4 µM (inactive)
- GI50 (HOP-62): > 100 µM (inactive)
- GI50 (HOP-92): 19.3 µM (inactive)
- GI50 (HT-29): > 100 µM (inactive)
- GI50 (IGROV-1): > 100 µM (inactive)
- GI50 (K562): > 100 µM (inactive)
- GI50 (KM-20L2): > 100 µM (inactive)
- GI50 (KM12): > 100 µM (inactive)
- GI50 (LOX IMVI): 95.1 µM (inactive)
- GI50 (LXFL 529): > 100 µM (inactive)
- GI50 (M14): 24.5 µM (inactive)
- GI50 (M19-MEL): 77.1 µM (inactive)
- GI50 (MOLT-4): > 100 µM (inactive)
- GI50 (Malme-3M): 51.9 µM (inactive)
- GI50 (NCI-H226): > 100 µM (inactive)
- GI50 (NCI-H23): > 100 µM (inactive)
- GI50 (NCI-H460): 46.2 µM (inactive)
- GI50 (NCI-H522): 25.9 µM (inactive)
- GI50 (OVCAR-3): > 100 µM (inactive)
- GI50 (OVCAR-4): > 100 µM (inactive)
- GI50 (OVCAR-5): > 100 µM (inactive)
- GI50 (OVCAR-8): > 100 µM (inactive)
- GI50 (RPMI-8226): > 100 µM (inactive)
- GI50 (RXF 393): 30.1 µM (inactive)
- GI50 (RXF 631): > 100 µM (inactive)
- GI50 (SF-268): > 100 µM (inactive)
- GI50 (SF-295): > 100 µM (inactive)
- GI50 (SF-539): 50.2 µM (inactive)
- GI50 (SK-MEL-28): > 100 µM (inactive)
- GI50 (SK-MEL-2): 33.7 µM (inactive)
- GI50 (SK-MEL-5): 84.1 µM (inactive)
- GI50 (SK-OV-3): > 100 µM (inactive)
- GI50 (SN12C): > 100 µM (inactive)
- GI50 (SNB-19): > 100 µM (inactive)
- GI50 (SNB-75): 82.4 µM (inactive)
- GI50 (SNB-78): > 100 µM (inactive)
- GI50 (SR): > 100 µM (inactive)
- GI50 (SW-620): > 100 µM (inactive)
- GI50 (TK-10): > 100 µM (inactive)
- GI50 (U-251): > 100 µM (inactive)
- GI50 (UACC-257): 27.9 µM (inactive)
- GI50 (UACC-62): 34.8 µM (inactive)
- GI50 (UO-31): > 100 µM (inactive)
- GI50 (XF498): 12.9 µM (inactive)

Compound: CC1OC(OC23C(=O)CC(C)(O)CC2(O)C=CC2=C3C(=O)c3ccc(C4CC(OC5CCC(OC6CC(O)C(O)C(C)O6)C(C)O5)C(O)C(C)O4)c(O)c3C2=O)CCC1O (stereo not drawn)
- GI50 (786-0): 17.4 µM (inactive) and 15.8 µM (inactive)
- GI50 (A549): 29.6 µM (inactive) and 25.1 µM (inactive)
- GI50 (ACHN): 17 µM (inactive) and 15.7 µM (inactive)
- GI50 (CAKI-1): 19.1 µM (inactive) and 19.8 µM (inactive)
- GI50 (CCRF-CEM): 6.65 µM (inactive)
- GI50 (COLO 205): 3.79 µM (inactive) and 2.33 µM (inactive)
- GI50 (DLD-1): 11.1 µM (inactive) and 13.6 µM (inactive)
- GI50 (EKVX): 18.7 µM (inactive) and 17.7 µM (inactive)
- GI50 (HCC 2998): 13.9 µM (inactive) and 16.2 µM (inactive)
- GI50 (HL-60): 4.42 µM (inactive) and 6.03 µM (inactive)
- GI50 (HOP-18): 17.5 µM (inactive) and 17.1 µM (inactive)
- GI50 (HOP-62): 27 µM (inactive) and 21.5 µM (inactive)
- GI50 (HT-29): 12.8 µM (inactive) and 19.5 µM (inactive)
- GI50 (IGROV-1): 16.5 µM (inactive) and 16.4 µM (inactive)
- GI50 (K562): 14.5 µM (inactive) and 9.4 µM (inactive)
- GI50 (KM-20L2): 19.1 µM (inactive) and 19.7 µM (inactive)
- GI50 (KM12): 17.5 µM (inactive) and 14.4 µM (inactive)
- GI50 (LXFL 529): 15.4 µM (inactive) and 11.5 µM (inactive)
- GI50 (M14): 18.2 µM (inactive) and 13.8 µM (inactive)
- GI50 (MOLT-4): 5.71 µM (inactive)
- GI50 (Malme-3M): 3.02 µM (inactive) and 1.57 µM (inactive)
- GI50 (NCI-H226): 19.5 µM (inactive) and 18.6 µM (inactive)
- GI50 (NCI-H23): 16.4 µM (inactive) and 18.5 µM (inactive)
- GI50 (NCI-H460): 19.4 µM (inactive) and 17.6 µM (inactive)
- GI50 (NCI-H522): 1.94 µM (inactive) and 2.05 µM (inactive)
- GI50 (OVCAR-4): 16.4 µM (inactive) and 19.1 µM (inactive)
- GI50 (OVCAR-5): 19.1 µM (inactive) and 20.6 µM (inactive)
- GI50 (RPMI-8226): 13.2 µM (inactive) and 10 µM (inactive)
- GI50 (RXF 631): 12.9 µM (inactive) and 20.1 µM (inactive)
- GI50 (SF-268): 17 µM (inactive) and 16.4 µM (inactive)
- GI50 (SF-539): 17.7 µM (inactive) and 17.3 µM (inactive)
- GI50 (SK-MEL-28): 15.5 µM (inactive) and 14.3 µM (inactive)
- GI50 (SK-MEL-2): 16.7 µM (inactive) and 16.3 µM (inactive)
- GI50 (SK-MEL-5): 19 µM (inactive) and 16.1 µM (inactive)
- GI50 (SK-OV-3): 28.1 µM (inactive) and 17.9 µM (inactive)
- GI50 (SN12C): 18.3 µM (inactive) and 16.5 µM (inactive)
- GI50 (SNB-75): 16.3 µM (inactive) and 16.9 µM (inactive)
- GI50 (SNB-78): 17.3 µM (inactive) and 17.7 µM (inactive)
- GI50 (SR): > 100 µM (inactive)
- GI50 (SW-620): 4.86 µM (inactive) and 3.39 µM (inactive)
- GI50 (TK-10): 21.6 µM (inactive) and 17.7 µM (inactive)
- GI50 (U-251): 16 µM (inactive) and 17.1 µM (inactive)
- GI50 (UACC-257): 17.9 µM (inactive) and 15.2 µM (inactive)
- GI50 (UACC-62): 13.8 µM (inactive) and 16.3 µM (inactive)
- GI50 (UO-31): 18 µM (inactive) and 18.4 µM (inactive)
- GI50 (XF498): 18.2 µM (inactive) and 18.9 µM (inactive)

Compound: COc1ccc(/C=C/c2nnc(S)[nH]2)cc1
- GI50 (786-0): > 100 µM (inactive)
- GI50 (A498): > 100 µM (inactive)
- GI50 (A549): > 100 µM (inactive)
- GI50 (ACHN): > 100 µM (inactive)
- GI50 (CAKI-1): > 100 µM (inactive)
- GI50 (CCRF-CEM): > 100 µM (inactive)
- GI50 (DLD-1): > 100 µM (inactive)
- GI50 (DMS-114): > 100 µM (inactive)
- GI50 (DMS-273): > 100 µM (inactive)
- GI50 (EKVX): > 100 µM (inactive)
- GI50 (HCC 2998): > 100 µM (inactive)
- GI50 (HCT-116): > 100 µM (inactive)
- GI50 (HCT-15): > 100 µM
- GI50 (HL-60): > 100 µM (inactive)
- GI50 (HOP-92): > 100 µM (inactive)
- GI50 (HT-29): > 100 µM (inactive)
- GI50 (IGROV-1): > 100 µM (inactive)
- GI50 (K562): > 100 µM (inactive)
- GI50 (KM-20L2): > 100 µM (inactive)
- GI50 (LOX IMVI): > 100 µM (inactive)
- GI50 (LXFL 529): > 100 µM (inactive)
- GI50 (M14): > 100 µM (inactive)
- GI50 (M19-MEL): > 100 µM (inactive)
- GI50 (MOLT-4): > 100 µM (inactive)
- GI50 (Malme-3M): > 100 µM (inactive)
- GI50 (NCI-H226): > 100 µM (inactive)
- GI50 (NCI-H23): > 100 µM (inactive)
- GI50 (NCI-H460): > 100 µM (inactive)
- GI50 (NCI-H522): > 100 µM (inactive)
- GI50 (OVCAR-3): > 100 µM (inactive)
- GI50 (OVCAR-4): > 100 µM (inactive)
- GI50 (OVCAR-5): > 100 µM (inactive)
- GI50 (OVCAR-8): > 100 µM (inactive)
- GI50 (RPMI-8226): > 100 µM (inactive)
- GI50 (RXF 393): > 100 µM (inactive)
- GI50 (RXF 631): > 100 µM (inactive)
- GI50 (SF-268): > 100 µM (inactive)
- GI50 (SF-295): > 100 µM (inactive)
- GI50 (SF-539): > 100 µM (inactive)
- GI50 (SK-MEL-28): > 100 µM (inactive)
- GI50 (SK-MEL-2): > 100 µM (inactive)
- GI50 (SK-MEL-5): > 100 µM (inactive)
- GI50 (SN12C): > 100 µM (inactive)
- GI50 (SNB-19): > 100 µM (inactive)
- GI50 (SNB-75): > 100 µM (inactive)
- GI50 (SNB-78): > 100 µM (inactive)
- GI50 (SR): > 100 µM (inactive)
- GI50 (SW-620): > 100 µM (inactive)
- GI50 (TK-10): > 100 µM (inactive)
- GI50 (U-251): > 100 µM (inactive)
- GI50 (UACC-257): > 100 µM (inactive)
- GI50 (UACC-62): > 100 µM (inactive)
- GI50 (UO-31): > 100 µM (inactive)
- GI50 (XF498): 79.3 µM (inactive)
